Measurements: patent EP1060748A1, “REMEDIES FOR CORNEAL EPITHELIUM DISTURBANCE” (Wakamoto Pharmaceutical Co., Ltd., priority 1998, dated 1999)
Where a name gives a salt, the structure may show the parent alone.

Test system: human corneal epithelial cell line HCEC
Assay: Protection against UV-C-induced human corneal epithelial cell damage, viable cell count
Type: cell-based
Conditions: Table 8-2, UV-C 5 seconds
Description: Human corneal epithelial cell line HCEC was suspended in 10% fetal bovine serum-SHEM modified medium at a concentration of 1×10^5 cells/ml and 500 µl of this cell suspension was seeded into each well of a 24-multiwell plate (Corning). The cells were cultured in a 5% CO2 incubator at 37°C for 16 to 17 hours. Then, the culture supernatant was thoroughly removed and 500 µl of 10% fetal bovine serum-SHEM modified medium containing a test sample was added to each well. The cells were cultured under the same conditions as above for a further two hours. After completion of culture in contact with the sample, the culture supernatant was removed thoroughly so that there would be substantially no residue of the sample in the multiwell plate. The multiwell plate in this condition was irradiated with UV-C, the ultraviolet light with a maximum lethal power, at a distance of 20 to 30 cm for 5 seconds. After UV-C irradiation, 500 µl/well of 10% fetal bovine serum-SHEM modified medium containing the same sample as above was added again and the cells were cultured under the same conditions as above for 16 to 17 hours. Then, the supernatant was discarded from each well and 100 µl of an excision solution (PBS containing 0.25% trypsin (w/v) and 0.02% EDTA) was added. The plate was then incubated in a 5% CO2 incubator at 37 °C for 6 minutes. After this incubation, the viable epithelial cells were thoroughly detached and dispersed by pipetting and stained with 100 µl of 0.1% (w/v) trypan blue staining solution, and immediately the viable cells were counted with a hemocytometer. The protective effect of the sample against UV-induced human corneal epithelial cell damage was evaluated by the following computation. Protective effect (%) = (number of viable cells in sample-added group ÷ number of viable cells in sample-free group) × 100 [formula]

SMILES | Protective effect (%) (2 mM) | Protective effect (%) (20 µM)
N[C@@H](CS)C(=O)O [Cysteine] | 46 | –
CC(=O)Oc1c(C)c(C)c2c(c1C)CCC(C)(CCCC(C)CCCC(C)CCCC(C)C)O2 (racemic) [Vitamin E, DL-α-tocopherol acetate] | – | 107
O=C1O[C@H]([C@@H](O)CO)C(O)=C1O [Vitamin C, ascorbic acid] | 104 | –
N[C@@H](CCC(=O)N[C@@H](CS)C(=O)NCC(=O)O)C(=O)O [Glutathione] | 95 | –
CC(=O)N(O)CCCCCNC(=O)CCC(=O)N(O)CCCCCNC(=O)CCC(=O)N(O)CCCCCN [Deferoxamine mesylate] | 94 | –
